Activity calls are given as the source filed them. The rule behind the calls is not given here.
Experiments:
MCF7 [1] = experiment: Cytotoxicity against human MCF7 cells assessed as cell viability at 0.5 uM after 2 days by MTT assay relative to control; type: functional; details: MCF7, 48 h, read-out: Activity
HeLa [2] = experiment: Cytotoxicity against human HeLa cells assessed as cell viability at 10 uM after 2 days by MTT assay relative to control; type: functional; details: 48 h, read-out: Activity
HeLa [3] = experiment: Cytotoxicity against human HeLa cells assessed as cell viability at 2 uM after 2 days by MTT assay relative to control; type: functional; details: 48 h, read-out: Activity
MCF7 [4] = experiment: Cytotoxicity against human MCF7 cells assessed as reduction in cell viability after 2 days by MTT assay; type: functional; details: MCF7, 48 h, read-out: LC50 (the source's name)
MCF7 [5] = experiment: Cytotoxicity against human MCF7 cells assessed as cell viability at 5 uM after 2 days by MTT assay relative to control; type: functional; details: MCF7, 48 h, read-out: Activity
HeLa [6] = experiment: Induction of apoptosis in human HeLa cells assessed as viable cells at 3 uM after 48 hrs by Annexin V/propidium iodide staining based flow cytometric analysis (reference value: 46.00 +/- 0.56 %); type: functional; details: read-out: Activity
HeLa [7] = experiment: Cytotoxicity against human HeLa cells assessed as cell viability at 0.5 uM after 2 days by MTT assay relative to control; type: functional; details: 48 h, read-out: Activity
HeLa [8] = experiment: Cytotoxicity against human HeLa cells assessed as cell viability at 1 uM after 2 days by MTT assay relative to control; type: functional; details: 48 h, read-out: Activity
MCF7 [9] = experiment: Cytotoxicity against human MCF7 cells assessed as cell viability at 1 uM after 2 days by MTT assay relative to control; type: functional; details: MCF7, 48 h, read-out: Activity
HeLa [10] = experiment: Induction of apoptosis in human HeLa cells assessed as necrotic cells at 3 uM after 48 hrs by Annexin V/propidium iodide staining based flow cytometric analysis (reference value: 21.45 +/- 0.78 %); type: functional
HeLa [11] = experiment: Induction of apoptosis in human HeLa cells assessed as early apoptotic cells at 3 uM after 48 hrs by Annexin V/propidium iodide staining based flow cytometric analysis (reference value: 0.05 +/- 0.07 %); type: functional
HeLa [12] = experiment: Induction of apoptosis in human HeLa cells assessed as late apoptotic cells at 3 uM after 48 hrs by Annexin V/propidium iodide staining based flow cytometric analysis (reference value: 31.80 +/- 0.25 %); type: functional
HeLa [13] = experiment: Cytotoxicity against human HeLa cells assessed as cell viability at 5 uM after 2 days by MTT assay relative to control; type: functional; details: 48 h, read-out: Activity
HeLa [14] = experiment: Cytotoxicity against human HeLa cells assessed as cell viability at 20 uM after 2 days by MTT assay relative to control; type: functional; details: 48 h, read-out: Activity
HeLa [15] = experiment: Cytotoxicity against human HeLa cells assessed as reduction in cell viability after 2 days by MTT assay; type: functional; details: 48 h, read-out: LC50 (the source's name)
MCF7 [16] = experiment: Cytotoxicity against human MCF7 cells assessed as cell viability at 2 uM after 2 days by MTT assay relative to control; type: functional; details: MCF7, 48 h, read-out: Activity
MCF7 [17] = experiment: Cytotoxicity against human MCF7 cells assessed as cell viability at 20 uM after 2 days by MTT assay relative to control; type: functional; details: MCF7, 48 h, read-out: Activity
HeLa [18] = experiment: Induction of apoptosis in human HeLa cells assessed as caspase 3 activation at 0.75 to 3 uM after 24 hrs by colorimetric analysis; type: functional, cell-based
MCF7 [19] = experiment: Cytotoxicity against human MCF7 cells assessed as cell viability at 10 uM after 2 days by MTT assay relative to control; type: functional; details: MCF7, 48 h, read-out: Activity

COc1cccc2c1C(=O)c1c(O)c3c(c(O)c1C2=O)C[C@@](O)(C(=O)CO)C[C@@H]3O[C@H]1C[C@H](N)[C@H](O)[C@H](C)O1.Cl [DOXORUBICIN HYDROCHLORIDE]
viability at 0.5 µM (MCF7 [1]): 66.4%
viability at 10 µM (HeLa [2]): 4.43%
viability at 2 µM (HeLa [3]): 39.2%
CC50 (MCF7 [4]): 1.07 µM
viability at 5 µM (MCF7 [5]): 34%
viability at 3 µM (HeLa [6]): 1.55%
viability at 0.5 µM (HeLa [7]): 62.8%
viability at 1 µM (HeLa [8]): 46%
viability at 1 µM (MCF7 [9]): 44%
Activity (HeLa [10]): 40.4%
Activity (HeLa [11]): 0.95%
Activity (HeLa [12]): 58.5%
viability at 5 µM (HeLa [13]): 8.53%
viability at 20 µM (HeLa [14]): 3.41%
CC50 (HeLa [15]): 0.78 µM
viability at 2 µM (MCF7 [16]): 38.4%
viability at 20 µM (MCF7 [17]): 24%
Activity (HeLa [18]): Active
viability at 10 µM (MCF7 [19]): 27.5%

From ChEMBL document CHEMBL4477257, “In vitro cytotoxicity of novel 2,5,7-tricarbo-substituted indoles derived from 2-amino-5-bromo-3-iodoacetophenone” (2016)
